Source: patent US9751847B2, “Methods and compositions related to neuroactive thiazoline compounds” (University of Utah Research Foundation, priority 2010, dated 2017)
Entries after “also recorded” stand apart in the source; their conditions may differ. Read-outs that look alike come from different tables or passages of the source.

Tests used:
[1] = molecular target: kappa opioid receptor (Homo sapiens, UniProt P41145); test: PDSP radioligand displacement receptor assay, KOR; type: binding; conditions: for inhibition at 10 µM: radioligand displacement, primary assay, 10 μM compound; for Ki: secondary binding assay, test compound 1 to 10,000 nM
Experimental: (§1) Receptor affinity assays were carried out according to methods as described at http://pdsp.med.unc.edu/ (accessed on Oct. 13, 2010).
(§2) Initial hits were obtained in radioligand displacement assays. […] Representative activity is highlighted in the table below showing in radioligand displacement activity at 10 μM of the in dicated compound. Ki was determined as indicated.

[2] = molecular target: DAT (Homo sapiens, UniProt Q01959); test: PDSP radioligand displacement receptor assay, DAT; type: binding; conditions: for inhibition at 10 µM: radioligand displacement, primary assay, 10 μM compound; for Ki: secondary binding assay, test compound 1 to 10,000 nM
Experimental: as §1, §2

[3] = molecular target: histamine H1 receptor (Homo sapiens, UniProt P35367); test: PDSP radioligand displacement receptor assay, H1; type: binding; conditions: for inhibition at 10 µM: radioligand displacement, primary assay, 10 μM compound; for Ki: secondary binding assay, test compound 1 to 10,000 nM
Experimental: as §1, §2

[4] = molecular target: 5HT-2B receptor (Homo sapiens, UniProt P41595); test: PDSP radioligand displacement receptor assay, 5HT2B; type: binding; conditions: for inhibition at 10 µM: primary assay, 10 μM compound; for Ki: secondary binding assay
Experimental: as §1, §2

[5] = tested on: Ca2+ Channel; test: PDSP radioligand displacement receptor assay, Ca2+ channel; type: binding; conditions: for inhibition (10 μM) Ca2+ Channel: radioligand displacement, primary assay, 10 μM compound; for Ki: secondary binding assay, test compound 1 to 10,000 nM
Experimental: as §1, §2

[6] = tested on: dorsal root ganglia (DRG) cells; test: Dorsal root ganglion (DRG) assay, Fura-2 intracellular calcium with 25 mM KCl; type: cell-based, mice; conditions: pure compound 20 μg/mL, co-applied with 25 mM KCl, mouse DRG cells
Experimental: For details of the isolation and culture of dorsal root ganglion neurons see Light et al. Briefly, dorsal root ganglia (DRG) cells from cervical and lumbar regions were obtained from mice and used in an assay with bacterial culture extracts and pure compounds. DRG cells were suspended in medium with additives and loaded with Fura-2 AM (Molecular Probes), a fluorescent dye used to measure intracellular calcium levels. Experiments were performed at room temperature (20 to 25° C.) in a 24-well plate format using fluorescence microscopy. Individual cells were treated as single samples, so that the individual responses of diverse neuron subtypes from the DRG could be examined. After baseline measurements, the cells were treated with 25 mM KCl solution and then washed. After return to baseline, bacterial extracts, fractions, or pure compounds were applied. This solution was then later replaced with 25 mM KCl solution. The use of KCl permitted observation of direct, modulatory, as well as inhibitory and excitatory effects of the samples assayed.
Representative data for assay results obtained with a sample of crude extract (100 μg/mL; FIG. 33), as well as compounds 1, 2, and 8 (20 μg/mL; respectively, […]). The y-axis indicates the ratio between 340 nm and 380 nm fluorescence. A higher value indicates more Ca^2+ in the cell. The x-axis indicates time. Each line indicates an individual DRG cell followed over the experimental time course. In each experiment, KCl is applied either once or twice, the compounds or extracts are incubated with cells, then the compound is co-applied with KCl.

[7] = tested on: other serotonin receptors; test: PDSP primary assay, other serotonin receptors; type: binding; conditions: 5HT-2B versus other serotonin receptors
Experimental: as §1, §2

[8] = test compound 1 to 10,000 nM, read-out: Ki (nM) 5HT2B

Chain of 5HT-2B receptor (P41595 whole entry): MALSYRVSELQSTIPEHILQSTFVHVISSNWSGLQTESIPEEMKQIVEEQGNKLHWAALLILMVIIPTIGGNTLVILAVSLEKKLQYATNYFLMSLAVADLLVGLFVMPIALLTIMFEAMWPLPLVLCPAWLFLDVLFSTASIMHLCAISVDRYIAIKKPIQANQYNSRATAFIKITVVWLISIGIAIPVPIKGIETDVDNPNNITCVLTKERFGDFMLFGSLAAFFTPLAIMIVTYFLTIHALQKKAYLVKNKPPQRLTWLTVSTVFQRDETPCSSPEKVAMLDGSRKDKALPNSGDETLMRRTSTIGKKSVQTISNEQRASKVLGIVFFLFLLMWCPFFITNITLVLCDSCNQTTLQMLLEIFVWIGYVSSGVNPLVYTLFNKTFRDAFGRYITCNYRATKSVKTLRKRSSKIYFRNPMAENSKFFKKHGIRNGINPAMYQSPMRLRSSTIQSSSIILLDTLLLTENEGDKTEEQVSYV
Chain of histamine H1 receptor (P35367 whole entry, species assumed): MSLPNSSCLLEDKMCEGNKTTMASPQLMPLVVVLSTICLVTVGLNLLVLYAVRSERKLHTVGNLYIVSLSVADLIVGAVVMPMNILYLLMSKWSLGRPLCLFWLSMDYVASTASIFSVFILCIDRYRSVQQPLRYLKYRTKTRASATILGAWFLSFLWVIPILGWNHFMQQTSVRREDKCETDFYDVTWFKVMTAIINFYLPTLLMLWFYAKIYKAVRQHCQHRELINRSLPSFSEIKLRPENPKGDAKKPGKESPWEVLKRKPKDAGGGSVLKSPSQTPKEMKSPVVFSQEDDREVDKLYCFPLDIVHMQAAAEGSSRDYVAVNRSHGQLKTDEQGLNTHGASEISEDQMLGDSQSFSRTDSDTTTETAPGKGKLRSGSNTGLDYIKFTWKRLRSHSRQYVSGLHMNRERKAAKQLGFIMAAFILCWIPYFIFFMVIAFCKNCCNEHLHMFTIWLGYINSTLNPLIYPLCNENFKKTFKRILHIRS
Chain of DAT (Q01959 whole entry, species assumed): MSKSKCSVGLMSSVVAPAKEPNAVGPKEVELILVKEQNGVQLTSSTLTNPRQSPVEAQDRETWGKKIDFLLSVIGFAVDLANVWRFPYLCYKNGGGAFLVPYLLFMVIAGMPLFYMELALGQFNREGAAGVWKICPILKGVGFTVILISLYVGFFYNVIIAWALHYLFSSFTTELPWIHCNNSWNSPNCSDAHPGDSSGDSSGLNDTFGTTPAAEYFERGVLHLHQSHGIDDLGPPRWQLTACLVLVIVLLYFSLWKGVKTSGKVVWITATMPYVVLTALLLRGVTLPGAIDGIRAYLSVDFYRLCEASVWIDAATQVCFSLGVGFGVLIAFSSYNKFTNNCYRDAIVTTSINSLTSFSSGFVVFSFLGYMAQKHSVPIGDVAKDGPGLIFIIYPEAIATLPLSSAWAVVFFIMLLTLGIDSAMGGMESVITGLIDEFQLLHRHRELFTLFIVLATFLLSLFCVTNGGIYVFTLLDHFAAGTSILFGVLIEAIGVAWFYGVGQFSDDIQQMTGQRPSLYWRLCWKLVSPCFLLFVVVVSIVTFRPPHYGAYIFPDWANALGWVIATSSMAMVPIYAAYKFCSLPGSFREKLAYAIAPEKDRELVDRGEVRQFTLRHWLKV
Chain of kappa opioid receptor (P41145 whole entry): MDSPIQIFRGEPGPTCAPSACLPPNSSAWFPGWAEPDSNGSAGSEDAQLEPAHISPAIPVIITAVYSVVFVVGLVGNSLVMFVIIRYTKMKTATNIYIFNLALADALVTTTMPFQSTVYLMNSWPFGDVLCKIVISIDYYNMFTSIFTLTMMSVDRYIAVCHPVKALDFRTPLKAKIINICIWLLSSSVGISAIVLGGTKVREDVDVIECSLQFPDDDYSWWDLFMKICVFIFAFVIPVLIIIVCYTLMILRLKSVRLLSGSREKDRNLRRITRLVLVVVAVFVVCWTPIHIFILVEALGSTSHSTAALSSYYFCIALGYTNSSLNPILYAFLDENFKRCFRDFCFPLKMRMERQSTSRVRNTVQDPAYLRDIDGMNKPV

Structure (SMILES): OC[C@@H]1CSC(c2ccccc2O)=N1 [Compound 1, (R)-2-(4-(hydroxymethyl)-4,5-dihydrothiazol-2-yl)phenol]
- inhibition at 10 µM [1]: 57.2%
- Ki [1]: > 10000 nM
- inhibition at 10 µM [2]: -1.5%
- inhibition at 10 µM [3]: 39%
- inhibition at 10 µM ([4]; radioligand displacement): 79.2%
- Ki [4, 8]: 1360 nM
- inhibition (10 μM) Ca2+ Channel [5]: −0.7%
- response in DRG assay (Ca2+ influx) [6]: excitatory response; also recorded: increased Ca^2+ influx

Structure (SMILES): C[C@@H]1SC(c2ccccc2O)=N[C@@H]1CO [Compound 2, 2-((4R,5S)-4-(hydroxymethyl)-5-methyl-4,5-dihydrothiazol-2-yl)phenol]
- inhibition at 10 µM [1]: 60.8%
- Ki [1]: > 10000 nM
- inhibition at 10 µM [2]: 6%
- inhibition at 10 µM [3]: 45.8%
- inhibition at 10 µM ([4]; radioligand displacement): 89.7%
- Ki [4, 8]: 505 nM
- selectivity for the 5HT-2B receptor versus the other serotonin receptors [7]: ≥ 20 fold
- Ki [5]: 6600 nM
- response in DRG assay (Ca2+ influx) [6]: inhibitory response; also recorded: decreased Ca^2+ influx

Structure (SMILES): Cc1sc(-c2ccccc2O)nc1C=O [Compound 5, 2-(2-hydroxyphenyl)-5-methylthiazole-4-carbaldehyde]
- inhibition at 10 µM [1]: 37.1%
- inhibition at 10 µM [2]: 88.3%
- Ki [2]: 5180 nM
- inhibition at 10 µM [3]: 42.5%
- inhibition at 10 µM ([4]; radioligand displacement): 77%
- Ki [4, 8]: 1540 nM
- inhibition (10 μM) Ca2+ Channel [5]: −18.9%

Structure (SMILES): NC(=O)c1csc(-c2ccccc2O)n1 [Compound 7, 2-(2-hydroxyphenyl)thiazole-4-carboxamide]
- inhibition at 10 µM [1]: 31.8%
- inhibition at 10 µM [2]: 2.4%
- inhibition at 10 µM [3]: 88%
- Ki [3]: 517 ± 28 nM
- inhibition at 10 µM ([4]; radioligand displacement): 84.9%
- Ki ([4]; radioligand displacement, read-out: Ki (nM) vs 5-HT2B): 1030 ± 76 nM
- inhibition (10 μM) Ca2+ Channel [5]: 29.6%

Structure (SMILES): NC(=O)C1CSC(c2ccccc2O)=N1 (stereo not drawn) [Compound 8, 2-(2-hydroxyphenyl)-4,5-dihydrothiazole-4-carboxamide]
- inhibition at 10 µM [1]: 50.4%
- Ki [1]: 3710 nM
- inhibition at 10 µM [2]: 13.8%
- inhibition at 10 µM [3]: 71.6%
- Ki [3]: 678 ± 46 nM
- inhibition at 10 µM ([4]; radioligand displacement): 65.8%
- Ki [4, 8]: 1260 nM
- inhibition (10 μM) Ca2+ Channel [5]: −3.4%
- response in DRG assay (Ca2+ influx) [6]: excitatory response; also recorded: increased Ca^2+ influx

Structure (SMILES): C[C@@H]1SC(c2ccccc2O)=N[C@H]1[C@@H]1SC[C@](C)(C(=O)O)N1C [Compound 9, (2S,4S)-2-((4R,5S)-2-(2-hydroxyphenyl)-5-methyl-4,5-dihydrothiazol-4-yl)-3,4-dimethylthiazolidine-4-carboxylic acid]
- inhibition at 10 µM [1]: 41.4%
- inhibition at 10 µM [2]: 83.8%
- Ki [2]: > 10000 nM
- inhibition at 10 µM [3]: 16.3%
- inhibition at 10 µM ([4]; radioligand displacement): 68%
- Ki [4, 8]: 3920 nM
- inhibition (10 μM) Ca2+ Channel [5]: 0.1%

Structure (SMILES): C[C@@H]1SC(c2ccccc2O)=N[C@H]1[C@H]1SC[C@](C)(C(=O)O)N1C [Compound 10, (2R,4S)-2-((4R,5S)-2-(2-hydroxyphenyl)-5-methyl-4,5-dihydrothiazol-4-yl)-3,4-dimethylthiazolidine-4-carboxylic acid]
- inhibition at 10 µM [1]: 31.9%
- inhibition at 10 µM [2]: -0.3%
- inhibition at 10 µM [3]: -3%
- inhibition at 10 µM ([4]; radioligand displacement): 40.3%
- Ki [4, 8]: 4700 nM
- inhibition (10 μM) Ca2+ Channel [5]: 110.4%
- Ki [5]: 9750 nM
